Drawing on patent US20240050571A1, “CARBORANE HYDROXAMIC ACID MATRIX METALLOPROTEINASE INHIBITORS AND AGENTS FOR BORON NEUTRON CAPTURE THERAPY” (LOYOLA UNIVERSITY OF CHICAGO, priority 2018, published 2024), this text covers IC50 for one molecule.

One experiment deals with MMP-9 (Homo sapiens (Human), UniProt P14780). The experiment can be described thus: Assay for inhibition of MMP (fluorescence), MMP-9. Conditions: read-out: MMP-9 IC50.
The target in another experiment is MMP-2 (Homo sapiens (Human), UniProt P08253). The note with it: read-out: MMP-2 IC50.
Sequence of MMP-2 (P08253 110-660 limits assumed): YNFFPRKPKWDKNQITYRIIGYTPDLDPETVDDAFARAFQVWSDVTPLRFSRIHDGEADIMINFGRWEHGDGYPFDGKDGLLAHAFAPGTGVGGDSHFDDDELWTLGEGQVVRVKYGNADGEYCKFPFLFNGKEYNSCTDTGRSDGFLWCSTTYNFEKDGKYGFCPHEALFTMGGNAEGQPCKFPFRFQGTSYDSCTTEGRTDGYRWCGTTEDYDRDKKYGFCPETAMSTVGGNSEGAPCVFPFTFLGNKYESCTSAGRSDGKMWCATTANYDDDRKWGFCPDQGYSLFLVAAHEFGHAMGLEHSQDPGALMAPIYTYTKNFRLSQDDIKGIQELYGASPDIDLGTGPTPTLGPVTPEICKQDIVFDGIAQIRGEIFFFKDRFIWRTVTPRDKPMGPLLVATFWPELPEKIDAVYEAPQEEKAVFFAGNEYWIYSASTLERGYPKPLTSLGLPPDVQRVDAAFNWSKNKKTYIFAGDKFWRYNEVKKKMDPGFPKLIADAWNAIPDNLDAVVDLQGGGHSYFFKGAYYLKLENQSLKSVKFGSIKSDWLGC

The IC50 is the concentration that inhibits the measured activity by half.

Sequence of MMP-9 (P14780 107-707 limits assumed): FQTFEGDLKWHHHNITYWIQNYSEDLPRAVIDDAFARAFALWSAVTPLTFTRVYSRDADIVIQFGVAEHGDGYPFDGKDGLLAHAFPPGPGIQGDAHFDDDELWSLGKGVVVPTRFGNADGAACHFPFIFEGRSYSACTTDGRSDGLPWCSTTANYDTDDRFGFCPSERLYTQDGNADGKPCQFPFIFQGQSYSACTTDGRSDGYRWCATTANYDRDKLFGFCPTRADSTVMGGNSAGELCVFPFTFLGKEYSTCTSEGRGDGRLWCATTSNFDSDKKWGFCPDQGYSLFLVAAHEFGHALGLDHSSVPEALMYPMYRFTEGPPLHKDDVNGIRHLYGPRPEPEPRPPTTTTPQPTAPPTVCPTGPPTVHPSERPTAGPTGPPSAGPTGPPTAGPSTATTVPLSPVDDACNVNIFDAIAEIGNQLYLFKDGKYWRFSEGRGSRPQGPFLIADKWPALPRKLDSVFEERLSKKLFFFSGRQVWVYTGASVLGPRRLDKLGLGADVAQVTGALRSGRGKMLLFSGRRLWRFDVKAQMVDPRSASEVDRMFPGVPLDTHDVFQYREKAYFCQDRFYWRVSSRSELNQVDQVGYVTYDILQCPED

For `COc1ccc(S(=O)(=O)N(CC(=O)NO)CC(C)C)cc1` [NNGH, N-Isobutyl-N-(4-methoxyphenylsulfonyl)glycyl hydroxamic acid], the IC50 is 5 nM on MMP-9 and 2.7 nM on MMP-2.
